Experimental data as given in PubChem BioAssay (NCI).
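Interpolation was linear, between the two tested concentrations surrounding the appropriate level; five concentrations were tested over 48 hours in 96-well plates. At the TGI there is no net growth.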

Legend:
Experiment in all cases: inhibition of tumour cell growth, NCI panel, 48 h
SF-295 CNS = tested on: SF-295 CNS
SNB-19 CNS = tested on: SNB-19 CNS
LXFL 529 NSCLC = tested on: LXFL 529 NSCLC
KM20L2 colon = tested on: KM20L2 colon
DMS 114 small cell lung = tested on: DMS 114 small cell lung
SN12C renal = tested on: SN12C renal
NCI-H226 lung = tested on: NCI-H226 lung
NCI-H522 lung = tested on: NCI-H522 lung
A498 renal = tested on: A498 renal
U251 CNS = tested on: U251 CNS
SNB-78 CNS = tested on: SNB-78 CNS
TK-10 renal = tested on: TK-10 renal
SK-OV-3 ovarian = tested on: SK-OV-3 ovarian
NCI-H460 lung = tested on: NCI-H460 lung
HT29 colon = tested on: HT29 colon
DMS 273 small cell lung = tested on: DMS 273 small cell lung
MOLT-4 leukemia = tested on: MOLT-4 leukemia
K-562 leukemia = tested on: K-562 leukemia
UACC-257 melanoma = tested on: UACC-257 melanoma
KM12 colon = tested on: KM12 colon
RXF 393 renal = tested on: RXF 393 renal
MALME-3M melanoma = tested on: MALME-3M melanoma
ACHN renal = tested on: ACHN renal
HOP-18 NSCLC = tested on: HOP-18 NSCLC
RPMI-8226 leukemia = tested on: RPMI-8226 leukemia
OVCAR-5 ovarian = tested on: OVCAR-5 ovarian
COLO 205 colon = tested on: COLO 205 colon
NCI-H23 lung = tested on: NCI-H23 lung
SF-539 CNS = tested on: SF-539 CNS
OVCAR-3 ovarian = tested on: OVCAR-3 ovarian
UO-31 renal = tested on: UO-31 renal
786-0 renal = tested on: 786-0 renal
SW-620 colon = tested on: SW-620 colon
CCRF-CEM leukemia = tested on: CCRF-CEM leukemia
CAKI-1 renal = tested on: CAKI-1 renal
HOP-62 NSCLC = tested on: HOP-62 NSCLC
OVCAR-8 ovarian = tested on: OVCAR-8 ovarian
SK-MEL-2 melanoma = tested on: SK-MEL-2 melanoma
SK-MEL-5 melanoma = tested on: SK-MEL-5 melanoma
SNB-75 CNS = tested on: SNB-75 CNS
HCC-2998 colon = tested on: HCC-2998 colon
OVCAR-4 ovarian = tested on: OVCAR-4 ovarian
M19-MEL melanoma = tested on: M19-MEL melanoma
IGROV1 ovarian = tested on: IGROV1 ovarian
M14 melanoma = tested on: M14 melanoma
EKVX NSCLC = tested on: EKVX NSCLC
HCT-15 colon = tested on: HCT-15 colon
XF 498 CNS = tested on: XF 498 CNS
SF-268 CNS = tested on: SF-268 CNS
UACC-62 melanoma = tested on: UACC-62 melanoma
HCT-116 colon = tested on: HCT-116 colon
HL-60(TB) leukemia = tested on: HL-60(TB) leukemia
RXF-631 renal = tested on: RXF-631 renal
A549 NSCLC = tested on: A549 NSCLC
LOX IMVI melanoma = tested on: LOX IMVI melanoma
SR leukemia = tested on: SR leukemia
HOP-92 NSCLC = tested on: HOP-92 NSCLC
DLD-1 colon = tested on: DLD-1 colon
SK-MEL-28 melanoma = tested on: SK-MEL-28 melanoma

C[S+](C)CCOC(=O)C(=[N+]=[N-])c1ccc([N+](=O)[O-])cc1
TGI (SF-295 CNS): > 100 µM
TGI (SNB-19 CNS): > 100 µM
TGI (LXFL 529 NSCLC): > 100 µM
TGI (KM20L2 colon): > 100 µM
TGI (DMS 114 small cell lung): > 100 µM
TGI (SN12C renal): > 100 µM
TGI (NCI-H226 lung): > 100 µM
TGI (NCI-H522 lung): > 100 µM
TGI (A498 renal): > 100 µM
TGI (U251 CNS): > 100 µM
TGI (SNB-78 CNS): > 100 µM
TGI (TK-10 renal): > 100 µM
TGI (SK-OV-3 ovarian): > 100 µM
TGI (NCI-H460 lung): > 100 µM
TGI (HT29 colon): > 100 µM
TGI (DMS 273 small cell lung): > 100 µM
TGI (MOLT-4 leukemia): > 100 µM
TGI (K-562 leukemia): > 100 µM
TGI (UACC-257 melanoma): > 100 µM
TGI (KM12 colon): > 100 µM
TGI (RXF 393 renal): > 100 µM
TGI (MALME-3M melanoma): > 100 µM
TGI (ACHN renal): > 100 µM
TGI (HOP-18 NSCLC): > 100 µM
TGI (RPMI-8226 leukemia): > 100 µM
TGI (OVCAR-5 ovarian): > 100 µM
TGI (COLO 205 colon): > 100 µM
TGI (NCI-H23 lung): > 100 µM
TGI (SF-539 CNS): > 100 µM
TGI (OVCAR-3 ovarian): > 100 µM
TGI (UO-31 renal): > 100 µM
TGI (786-0 renal): > 100 µM
TGI (SW-620 colon): > 100 µM
TGI (CCRF-CEM leukemia): > 100 µM
TGI (CAKI-1 renal): > 100 µM
TGI (HOP-62 NSCLC): > 100 µM
TGI (OVCAR-8 ovarian): > 100 µM
TGI (SK-MEL-2 melanoma): > 100 µM
TGI (SK-MEL-5 melanoma): > 100 µM
TGI (SNB-75 CNS): > 100 µM
TGI (HCC-2998 colon): > 100 µM
TGI (OVCAR-4 ovarian): > 100 µM
TGI (M19-MEL melanoma): > 100 µM
TGI (IGROV1 ovarian): > 100 µM
TGI (M14 melanoma): > 100 µM
TGI (EKVX NSCLC): > 100 µM
TGI (HCT-15 colon): > 100 µM
TGI (XF 498 CNS): > 100 µM
TGI (SF-268 CNS): > 100 µM
TGI (UACC-62 melanoma): > 100 µM
TGI (HCT-116 colon): > 100 µM
TGI (HL-60(TB) leukemia): > 100 µM
TGI (RXF-631 renal): > 100 µM
TGI (A549 NSCLC): > 100 µM

CCCCCC/C=C1\CCC(CN2CCCC2)C1=O (stereo unspecified)
TGI (SF-295 CNS): 34.1 µM
TGI (SNB-19 CNS): > 52.9 µM
TGI (LXFL 529 NSCLC): 11.4 µM
TGI (KM20L2 colon): 41.3 µM
TGI (DMS 114 small cell lung): 29.4 µM
TGI (SN12C renal): 27 µM
TGI (LOX IMVI melanoma): 22.4 µM
TGI (NCI-H226 lung): 34.3 µM
TGI (NCI-H522 lung): 3.29 µM
TGI (A498 renal): 38.4 µM
TGI (U251 CNS): 30 µM
TGI (SNB-78 CNS): 60.2 µM
TGI (TK-10 renal): 17.4 µM
TGI (SK-OV-3 ovarian): 33 µM
TGI (NCI-H460 lung): > 62.1 µM
TGI (HT29 colon): 34.2 µM
TGI (DMS 273 small cell lung): 25.5 µM
TGI (MOLT-4 leukemia): > 87 µM
TGI (K-562 leukemia): 12.6 µM
TGI (UACC-257 melanoma): 32.7 µM
TGI (KM12 colon): 13.3 µM
TGI (RXF 393 renal): 33.5 µM
TGI (MALME-3M melanoma): 34.6 µM
TGI (ACHN renal): 32.3 µM
TGI (HOP-18 NSCLC): 32.9 µM
TGI (RPMI-8226 leukemia): 5.56 µM
TGI (OVCAR-5 ovarian): 32.3 µM
TGI (COLO 205 colon): 36.3 µM
TGI (NCI-H23 lung): 33.8 µM
TGI (SR leukemia): > 22.4 µM
TGI (SF-539 CNS): 34.1 µM
TGI (OVCAR-3 ovarian): 27.3 µM
TGI (UO-31 renal): 33 µM
TGI (786-0 renal): 6.43 µM
TGI (HOP-92 NSCLC): 32.4 µM
TGI (SW-620 colon): > 59.4 µM
TGI (CCRF-CEM leukemia): 20.9 µM
TGI (CAKI-1 renal): > 53.5 µM
TGI (HOP-62 NSCLC): 34.2 µM
TGI (OVCAR-8 ovarian): 39.2 µM
TGI (SK-MEL-2 melanoma): 30.5 µM
TGI (SK-MEL-5 melanoma): 32.8 µM
TGI (SNB-75 CNS): 38.3 µM
TGI (HCC-2998 colon): 31.6 µM
TGI (OVCAR-4 ovarian): 49.1 µM
TGI (M19-MEL melanoma): 25.6 µM
TGI (IGROV1 ovarian): 39.6 µM
TGI (M14 melanoma): 33.6 µM
TGI (EKVX NSCLC): 34.2 µM
TGI (HCT-15 colon): 22.8 µM
TGI (XF 498 CNS): 31.4 µM
TGI (SF-268 CNS): 38.5 µM
TGI (UACC-62 melanoma): 35.9 µM
TGI (HCT-116 colon): 25 µM
TGI (RXF-631 renal): 42.2 µM
TGI (DLD-1 colon): 18 µM
TGI (A549 NSCLC): 37 µM
TGI (SK-MEL-28 melanoma): 33.8 µM

CN(C(=O)C12C3C4C1C1C4(C(=O)C45C6C7C4C4C5C6C74C)C3C12C)C(C)(C)C (stereo unspecified)
TGI (SF-295 CNS): > 100 µM
TGI (SNB-19 CNS): > 100 µM
TGI (LXFL 529 NSCLC): > 100 µM
TGI (KM20L2 colon): 85.3 µM
TGI (DMS 114 small cell lung): > 100 µM
TGI (SN12C renal): > 100 µM
TGI (LOX IMVI melanoma): > 100 µM
TGI (NCI-H226 lung): > 100 µM
TGI (NCI-H522 lung): > 100 µM
TGI (A498 renal): > 100 µM
TGI (U251 CNS): > 100 µM
TGI (SNB-78 CNS): > 100 µM
TGI (TK-10 renal): > 100 µM
TGI (SK-OV-3 ovarian): > 100 µM
TGI (NCI-H460 lung): > 100 µM
TGI (HT29 colon): 35.1 µM
TGI (DMS 273 small cell lung): > 100 µM
TGI (MOLT-4 leukemia): > 100 µM
TGI (K-562 leukemia): > 100 µM
TGI (UACC-257 melanoma): > 100 µM
TGI (KM12 colon): > 100 µM
TGI (MALME-3M melanoma): > 100 µM
TGI (ACHN renal): > 100 µM
TGI (OVCAR-5 ovarian): > 100 µM
TGI (COLO 205 colon): > 100 µM
TGI (NCI-H23 lung): > 100 µM
TGI (SR leukemia): > 100 µM
TGI (SF-539 CNS): > 100 µM
TGI (UO-31 renal): > 100 µM
TGI (786-0 renal): > 100 µM
TGI (HOP-92 NSCLC): > 100 µM
TGI (SW-620 colon): > 100 µM
TGI (CCRF-CEM leukemia): > 100 µM
TGI (CAKI-1 renal): > 100 µM
TGI (HOP-62 NSCLC): > 100 µM
TGI (OVCAR-8 ovarian): > 100 µM
TGI (SK-MEL-2 melanoma): > 100 µM
TGI (SK-MEL-5 melanoma): 81.7 µM
TGI (SNB-75 CNS): > 100 µM
TGI (HCC-2998 colon): > 100 µM
TGI (M19-MEL melanoma): > 100 µM
TGI (IGROV1 ovarian): > 100 µM
TGI (M14 melanoma): > 100 µM
TGI (EKVX NSCLC): > 100 µM
TGI (HCT-15 colon): > 100 µM
TGI (XF 498 CNS): > 100 µM
TGI (SF-268 CNS): > 100 µM
TGI (UACC-62 melanoma): > 100 µM
TGI (HCT-116 colon): > 100 µM
TGI (HL-60(TB) leukemia): 43.2 µM
TGI (RXF-631 renal): > 100 µM
TGI (DLD-1 colon): > 100 µM
TGI (A549 NSCLC): > 100 µM
TGI (SK-MEL-28 melanoma): > 100 µM
